This is an account of results in ChEMBL document CHEMBL1132054, “Synthesis and properties of 2-(naphthosultamyl)methyl-carbapenems with potent anti-MRSA activity: discovery of L-786,392” (Bioorg Med Chem Lett, 1999).

SMILES strings stand for the structures.

Series [1] concerns Enterococcus faecium. The experiment in a line: In vitro antibacterial activity against MDREFm. The class given is functional.
Series [2] deals with Staphylococcus aureus. The experiment in a line: In vitro antibacterial activity against MRSA. The class given is functional.
In a further series the test system is Enterococcus faecalis. Put plainly: In vitro antibacterial activity against VREFs. In kind it is functional.
The test system of series [3] is Staphylococcus aureus. The experiment in a line: Antibacterial activity against Methicillin sensitive Staphylococcus aureus. The class given is functional.
The test system of series [4] is Staphylococcus aureus. The experiment in a line: Effect of 43 mg/mL of Human Serum Albumin, Fraction V (HSA Fr. V) on antimicrobial activity was assessed against MSSA strain MB 2985. In kind it is functional.
Series [5] deals with T1, Dipeptidase 1 (Sus scrofa) (UniProt P22412).
T1 sequence (whole entry): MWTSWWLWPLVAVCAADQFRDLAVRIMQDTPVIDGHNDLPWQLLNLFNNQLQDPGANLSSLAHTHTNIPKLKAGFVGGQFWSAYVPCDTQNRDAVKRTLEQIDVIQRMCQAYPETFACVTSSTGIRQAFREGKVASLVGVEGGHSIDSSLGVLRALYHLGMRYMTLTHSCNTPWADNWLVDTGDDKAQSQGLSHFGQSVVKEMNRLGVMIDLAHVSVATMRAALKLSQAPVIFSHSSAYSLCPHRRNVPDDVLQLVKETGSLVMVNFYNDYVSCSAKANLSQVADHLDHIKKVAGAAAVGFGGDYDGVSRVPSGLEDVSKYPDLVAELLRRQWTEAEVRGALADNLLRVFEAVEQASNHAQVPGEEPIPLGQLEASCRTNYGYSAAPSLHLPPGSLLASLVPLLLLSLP
The experiment in a line: Susceptibility to hog kidney dehydropeptidase-I. The class given is functional, tissue-based. Set-up: reference not given here.

The test system of a further series is Streptococcus pneumoniae. The experiment in a line: In vitro antibacterial activity against PRSP. The class given is functional.
The next series relates to Staphylococcus sp. Put plainly: In vitro antibacterial activity against MRCNS. In kind it is functional.
Series [6] is described as follows: Lethal dose defined as as the lowest dose resulting in the death of a single mouse. In kind it is toxicity. The note with it: in vivo.
Series [7] has as its system Enterococcus faecium. The experiment in a line: Antibacterial activity against VREFs. In kind it is functional.
The subject of series [8] is Staphylococcus aureus. The experiment in a line: Antibacterial activity against Methicillin sensitive Staphylococcus aureus-/+ HSA Fr. V. In kind it is functional.
The test system of series [9] is Staphylococcus aureus. Put plainly: Effect of 43 mg/mL of Human Serum Albumin, Fraction V (HSA Fr. V) on antimicrobial activity was assessed against Methicillin sensitive Staphylococcus aureus strain MB 2985. The class given is functional.
The species named for the next series is Mus musculus. The experiment in a line: Dose showing no visible effects (ataxia, somnolence) in two mice. The class given is functional.
Series [10] relates to Enterococcus faecium. The experiment in a line: Antibacterial activity against MDREFm. The class given is functional.
Series [11] has as its target T1, Dipeptidase 1 (Sus scrofa). Put plainly: Compound was tested for susceptibility to hog kidney dehydropeptidase-I and expressed as a reaction rate normalized to the rate observed with imipenem (IPM). The class given is functional, tissue-based.

Take `C[C@@H](O)[C@H]1C(=O)N2C(C(=O)[O-])=C(CN3c4cccc5cccc(c45)S3(=O)=O)[C@H](C)[C@H]12.[Na+]`: the minimum inhibitory concentration (MIC) (usually the lowest concentration that inhibits growth of the organism) in the series with Enterococcus faecium [1] was 25.4 µg/mL; in the series with Staphylococcus aureus [2], 0.7 µg/mL; with Enterococcus faecalis it was 8 µg/mL; against Staphylococcus aureus [3], 0.016 µg/mL; in the series on Staphylococcus aureus [4], 0.25 µg/mL; against Streptococcus pneumoniae, 0.25 µg/mL. Further, in the series on Staphylococcus sp., the lowest concentration to inhibit growth (MIC) was 3.5 µg/mL. This molecule also came in with an Activity in [5] of 0.99.
Take `C[C@@H](O)[C@H]1C(=O)N2C(C(=O)O)=C(CN3c4cccc5ccc(C[N+]67CC[N+](CC(N)=O)(CC6)CC7)c(c45)S3(=O)=O)[C@H](C)[C@H]12.[Cl-].[Cl-]`: the MIC turned out to be 20.2 µg/mL against Enterococcus faecium [1]; 2.5 µg/mL with Staphylococcus aureus [2]; 16 µg/mL with Enterococcus faecalis; 0.016 µg/mL in the series with Staphylococcus aureus [3]; 0.031 µg/mL in the series with Staphylococcus aureus [4]; 0.71 µg/mL with Streptococcus pneumoniae. The molecule also returned an MIC against Staphylococcus sp. of 4 µg/mL. This molecule also returned an Activity in series [5] of 0.01.
Turning to `C[C@@H](O)[C@H]1C(=O)N2C(C(=O)O)=C(CN3c4cccc5c(CC[N+]67CC[N+](CC(N)=O)(CC6)CC7)ccc(c45)S3(=O)=O)[C@H](C)[C@H]12.[Cl-].[Cl-]`, the minimal inhibitory concentration (MIC) is 0.7 µg/mL in the series on Staphylococcus aureus [2]; 8 µg/mL in the series with Enterococcus faecium [7]; 0.17 µg/mL in the series with Streptococcus pneumoniae; 0.016 µg/mL against Staphylococcus aureus [8]; 0.031 µg/mL with Staphylococcus aureus [9]; 1 µg/mL with Staphylococcus sp.. Further, in the series on Enterococcus faecium [10], the lowest concentration to inhibit growth (MIC) was 4 µg/mL. This molecule returned a Lethal dose in series [6] of more than 500 mg/kg. The Activity in [5] was 1.77. This molecule also registered an NOEL in the series listed under Mus musculus of 250 mg/kg.
Turning to `C[C@@H](O)[C@H]1C(=O)N2C(C(=O)O)=C(CN3c4cccc5c(CC[N+]67CC[N+](Cc8ccccc8)(CC6)CC7)ccc(c45)S3(=O)=O)[C@H](C)[C@H]12.[Cl-].[Cl-]`, the MIC with Enterococcus faecium [1] was 6.4 µg/mL; in the series with Staphylococcus aureus [2], 0.9 µg/mL; against Enterococcus faecalis it was 8 µg/mL; against Streptococcus pneumoniae it was 0.35 µg/mL; in the series on Staphylococcus sp. it was 1.3 µg/mL. For the same molecule, in series [6], the Lethal dose is 250 mg/kg. The molecule further came in with an Activity in [11] of 1.85. The molecule further registered an NOEL in the series listed under Mus musculus of 63 mg/kg.
As to `C[C@@H](O)[C@H]1C(=O)N2C(C(=O)O)=C(CN3c4cccc5c(C[N+]67CC[N+](CC(N)=O)(CC6)CC7)ccc(c45)S3(=O)=O)[C@H](C)[C@H]12.[Cl-].[Cl-]`, the MIC in the series on Enterococcus faecium [1] amounted to 8 µg/mL; against Staphylococcus aureus [2] it was 1 µg/mL; with Enterococcus faecalis, 16 µg/mL; against Staphylococcus aureus [4], 0.031 µg/mL; against Streptococcus pneumoniae, 0.5 µg/mL; in the series with Staphylococcus aureus [8], 0.031 µg/mL. The same molecule returned a minimal inhibitory concentration (MIC) with Staphylococcus sp. of 1.5 µg/mL. The molecule further had a Lethal dose in [6] of 500 mg/kg. In series [5], this molecule registered an Activity of 0.74. In the series listed under Mus musculus, the NOEL was 250 mg/kg.
Take `C[C@@H](O)[C@H]1C(=O)N2C(C(=O)O)=C(CN3c4cccc5cc(CC[N+]67CC[N+](CC(N)=O)(CC6)CC7)cc(c45)S3(=O)=O)[C@H](C)[C@H]12.[Cl-].[Cl-]`: the MIC amounted to 3.2 µg/mL with Enterococcus faecium [1]; 0.5 µg/mL against Staphylococcus aureus [2]; 8 µg/mL in the series on Enterococcus faecalis; 0.016 µg/mL in the series on Staphylococcus aureus [4]; 0.17 µg/mL in the series with Streptococcus pneumoniae; 0.016 µg/mL with Staphylococcus aureus [8]. The molecule also had a minimum inhibitory concentration (MIC) in the series with Staphylococcus sp. of 0.6 µg/mL. Further, the Lethal dose in series [6] was 500 mg/kg. The Activity in series [5] is 0.75. The same molecule showed an NOEL in the series listed under Mus musculus of 125 mg/kg.
As to `C[C@@H](O)[C@H]1C(=O)N2C(C(=O)O)=C(CN3c4cccc5ccc(CC[N+]67CC[N+](CC(N)=O)(CC6)CC7)c(c45)S3(=O)=O)[C@H](C)[C@H]12.[Cl-].[Cl-]`, the MIC against Enterococcus faecium [1] worked out at 10.1 µg/mL; in the series on Staphylococcus aureus [2], 0.9 µg/mL; in the series with Enterococcus faecalis it was 8 µg/mL; against Staphylococcus aureus [3], 0.016 µg/mL; in the series with Staphylococcus aureus [4], 0.016 µg/mL; against Streptococcus pneumoniae, 0.35 µg/mL. The molecule also registered an MIC against Staphylococcus sp. of 1.2 µg/mL. Besides, the Lethal dose in [6] came to 63 mg/kg. Moreover, in [5], the Activity is 0. This molecule also returned an NOEL in the series filed under Mus musculus of 16 mg/kg.
